Biological target: T1, 11β-HSD1 (Homo sapiens, UniProt P28845)
T1 construct: Human liver microsomes were used as a source of 11β-HSD1 enzyme; tissue XenoTech Lot No. 1410013; host or cells: pooled human liver microsomes, mixed gender
Test: Inhibition of 11β-HSD1 (cortisone to cortisol, human liver microsomes, cortisol ELISA)
Type: biochemical
Conditions: 10 µM, 2.5 h, 37 °C
Protocol: The resulting solution with a final volume of 100 µL was incubated for 2.5 h at 37 °C. To stop the reaction, 10 µL of a 100 µM solution of 18β-glycyrrhetinic acid in PBS was added. The level of cortisol obtained in the reaction was measured by commercially available ELISA kit.
As a control, analogous tests without the addition of inhibitors were used. Half the inhibitory concentration (causing 50% reduction of cortisol or cortisone) was read from the chart.

T1 sequence (P28845 whole entry): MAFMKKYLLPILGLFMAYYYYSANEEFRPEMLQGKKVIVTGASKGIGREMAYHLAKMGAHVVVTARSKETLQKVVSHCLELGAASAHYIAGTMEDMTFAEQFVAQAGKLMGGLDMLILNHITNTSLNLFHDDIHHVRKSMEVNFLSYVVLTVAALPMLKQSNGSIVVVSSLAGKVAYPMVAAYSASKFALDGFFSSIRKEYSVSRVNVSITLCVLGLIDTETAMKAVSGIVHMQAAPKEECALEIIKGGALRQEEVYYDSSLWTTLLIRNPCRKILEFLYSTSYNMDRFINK

inhibition at 10 µM: 90.4 ± 1.86%
Compound: CC1(C)[C@@H](OC(=O)CCC(=O)O)CC[C@]2(C)[C@H]3C(=O)C=C4[C@@H]5C[C@@](C)(C(=O)O)CC[C@]5(C)CC[C@@]4(C)[C@]3(C)CC[C@@H]12 [carbenoxolone, reference compound]
